Converted amounts (≈) assume the structure as drawn. “Also recorded” adds a separate entry of the source.
What was measured:
MRSA-2 [1] = assay: MIC and MBC testing, broth microdilution; assay type: cell-based, Staphylococcus aureus; details: Staphylococcus aureus, MRSA-2
Method in brief: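 MIC and MBC determined by broth microdilution with twofold compound dilutions (from DMSO stock) in MH broth. Log-phase inoculum at 1 × 10^6 CFU/mL; 18 h incubation at 37 °C.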

[2] = system: clinical S. aureus isolate LMY45; assay: MIC and MBC testing, broth microdilution; assay type: cell-based, Staphylococcus aureus; details: Staphylococcus aureus, LMY45
Method in brief: (§1)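 Triplicate broth microdilution: MH broth, serial 2× dilution of compounds dissolved in DMSO, 1 × 10^6 CFU/mL bacteria grown to log phase, 18 h at 37 °C, followed by MBC determination.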

[3] = system: clinical S. aureus isolate LMY47; assay: MIC and MBC testing, broth microdilution; assay type: cell-based, Staphylococcus aureus; details: Staphylococcus aureus, LMY47
Method in brief: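 Log-phase cultures, adjusted to 1 × 10^6 CFU/mL in MH broth, are exposed to twofold serial compound dilutions and held at 37 °C for 18 h. Triplicate per concentration; both inhibitory and bactericidal endpoints are taken.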

[4] = system: clinical S. aureus isolate LMY48; assay: MIC and MBC testing, broth microdilution; assay type: cell-based, Staphylococcus aureus; details: Staphylococcus aureus, LMY48
Method in brief: as §1

MRSA-2 [5] = assay: MRSA-induced mouse skin abscess model; assay type: in vivo
Source text: The MRSA-induced mouse skin abscess model was used to assess the in vivo antibacterial effects of 2D. Female KM mice, aged 4–6 weeks and weighing 20 ± 2 g, were purchased from the Laboratory Animal Center, Lanzhou Institute of Veterinary Medicine, Chinese Academy of Agricultural Sciences. The animal experiments were approved by the Ethics Committee of Research Involving Animals of the Lanzhou Institute of Husbandry and Pharmaceutical Science of CAAS (Approval number: 2025-03) and performed in accordance with the guidelines of the Ethics Committee for Animal Experiments. Prior to the formal experiment, all mice were acclimated for 5 days. The mice were kept in a pathogen-free environment with a 12 h light/12 h dark cycle, 50% ± 10% humidity, and a temperature of 24 °C ± 2 °C. […] The depilation method employed was as follows: depilatory paste was applied to the designated area for 10 min, after which it was thoroughly washed with 0.9% saline. The mice were semi-anesthetized by intraperitoneal injection with sodium Ulatan (TCI, 20%, 100 μL). […] After a 24 h interval, the administration was repeated, and 24 h after the last administration, the volume of abscess was measured and calculated. Then, the skin of the infected site and main organs were collected for tissue bacterial load and pathological detection.

MIC (MRSA-2 [1]; 18 h, read-out: MIC): 1 µg/mL (≈ 3.16 µM) | MIC ([2]; 18 h, read-out: MIC): 2 µg/mL (≈ 6.32 µM) | MIC ([3]; 18 h, read-out: MIC): 1 µg/mL (≈ 3.16 µM) | MIC ([4]; 18 h, read-out: MIC): 2 µg/mL (≈ 6.32 µM)
SMILES: [H]/N=C(\N)NN=C1CCCc2cc(OCCCCCCC)ccc21 [Compound 2D, (E)-2-(6-(heptyloxy)-3,4-dihydronaphthalen-1(2H)-ylidene)hydrazine-1-carboximidamide]
MBC (MRSA-2 [1]; read-out: MBC): 4 µg/mL (≈ 12.6 µM) | MBC ([2]; read-out: MBC): 2 µg/mL (≈ 6.32 µM) | MBC ([3]; read-out: MBC): 4 µg/mL (≈ 12.6 µM) | MBC ([4]; read-out: MBC): 2 µg/mL (≈ 6.32 µM) | purulent lesions at the infection site (skin histopathology) (MRSA-2 [5]; 5 mg/kg): significantly smaller | volume of skin abscess (MRSA-2 [5]; 5 mg/kg, injected 2 h and 24 h postinfection, compared to model and solvent group): reduced volume | purulent foci (skin histopathology) (MRSA-2 [5]; 10 mg/kg): almost no purulent foci | skin abscess appearance (MRSA-2 [5]; 10 mg/kg, injected 2 h and 24 h postinfection): devoid of any discernible abscesses | bacterial load of the skin at the infected site (MRSA-2 [5]; 2D 5 and 10 mg/kg, vancomycin 5 mg/kg, compared with model and solvent group): decreased bacterial load; also recorded: significantly reduced | histopathology of the major organs (MRSA-2 [5]; infected mice after treatment, H&E): no discernible lesions
